Test results from patent US20230339915A1 (Vertex Pharmaceuticals Incorporated, priority 2020, published 2023).

Key:
[1] = target: NL20 human bronchial epithelial cells expressing human Z-AAT (Homo sapiens (Human), UniProt P01009, E366K); test: AAT Function Assay (MSD Assay NL20-SI Cell Line); assay type: cell-based; details: functionally active AAT (AAT-hNE complex, MSD) in supernatant of NL20 cells expressing human Z-AAT; read-out: NL20 Functional EC50
Description: A. AAT Function Assay (MSD Assay NL20-SI Cell Line)
Alpha-1 antitrypsin (AAT) is a SERpIN (serine protease inhibitor) that inactivates enzymes by binding to them covalently. This assay measured the amount of functionally active AAT in a sample in the presence of the disclosed Compounds 1-227 by determining the ability of AAT to form an irreversible complex with human neutrophil Elastase (hNE). In practice, the sample (cell supernatant, blood sample, or other) was incubated with excess hNE to allow AAT-Elastase complex to be formed with all functional AAT in the sample. This complex was then captured to a microplate coated with an anti-AAT antibody. The complex captured to the plate was detected with a labeled anti-Elastase antibody and quantitated using a set of AAT standards spanning the concentration range present in the sample. Meso Scale Discovery (MSD) plate reader, Sulfo-tag labeling, and microplates were used to provide high sensitivity and wide dynamic range.
Instrument(S): • Meso Sector S600 • Bravo • Washer dispenser • Multidrop Combi
Day 1 Cell Culture • 1. Harvest NL20 human bronchial epithelial cells expressing human Z-AAT in OptiMEM™ containing Pen/Strep (P/S) • 2. Seed at 16,000 cells/well in 30 μL (384 well plate) • 3. Centrifuge plates briefly up to speed (1200 rpm) and place into 37° C. incubator overnight
Day 2: Compound Addition and Coating Plates with Capture Antibody
Compound Addition: • 1. Dispense 40 μL of OptiMEM™ (P/S) with doxycycline (1:1000 stock=0.1 μM final) to each well of the compound plate using a multidrop Combi in hood • 2. Remove cell plate from incubator, flip/blot and take immediately to Bravo to transfer compounds • 3. Return plates to incubator overnight
Coat MSD Plates • 1. Dilute capture antibody (Polyclonal Goat anti-AAT) to 5 μg/mL (1:200) in PBS (no BSA). • 2. Dispense 25 μL of diluted capture antibody into all wells of MSD 384-well High Bind plate using the Multidrop equipped with a standard cassette. • 3. Incubate overnight at 4° C.
Prepare Blocker A (BSA) Solutions • 1. Prepare solution of 5% MSD Blocker A (BSA) following the manufacturer's instructions. • 2. Further dilute the 5% MSD Blocker A in PBS to 1% (Blocker A) as needed.
Block Plates • 1. Wash plate 1× with 50 μL Wash buffer (PBS+0.5% Tween 20), and adds 35 μL 5% Block A buffer to block non-specific binding on washer dispenser • 2. Rotate plates on shaker for 1 hour at 600 rpm
Prepare M-AA T Standards • 1. Dilute M-AAT stock to 1.6 μg/mL in 1% BSA Blocker A (Stock in −70° C.); then prepare 12×1:2 serial dilutions in 1% Blocker A • 2. The top starting final concentration on MSD plate is 320 ng/mL. These dilutions correspond to a final concentration of 320, 160, 80, 40, 20, 10, 5, 2.5, 1.25, 0.625, 0.312, 0.156 ng/mL.
Dilution Plate • 1. Add 80 μL of 1% Assay buffer to all wells except columns 1/24 (standards) with Multidrop Combi • 2. Add diluted standards to columns 1 and 24 • 3. Centrifuge dilution plates 1200 rpm briefly
Cell Plate • 1. Aspirate columns which will have the standards from the cell plates in the hood using 16-pin aspirator
Prepare Human Neutrophil Elastase (hNE) • 1. Prepare 1 μg/mL Human Neutrophil Elastase by diluting in 1% Blocker A. • a. Small 100 μg vial—add 1 mL PBS (100 μg/mL) • i. This can then be diluted 1:100 in 1% Assay Buffer for a final 1 μg/mL concentration
MSD—add hNE (20 μL/well) • 1. After the MSD plate has blocked for at least 1 hour, wash plate 1× with 50 μL Wash buffer (PBS+0.5% Tween 20) and then add 20 μL hNE to each well
Bravo—Cell Plate—Dilution Plate—MSD Plate
Using the Bravo aspirate 10 μL from the cell plate, transfer to the dilution plate (9-fold dilution) • 1. Mix 25 μL 3×, then aspirate 5 μL, transfer to MSD plate (5-fold dilution) • 2. Mix 10 μL 3×. Total dilution is 45 fold. • 3. Shake plates at 600 rpm for 1.5 hours
Add Functional Detection hNE Antibody • 1. Wash plate 1× with wash buffer • 2. […]

[2] = target: purified Z-AAT protein from human plasma (Homo sapiens (Human), UniProt P01009, E366K); test: Biochemical Assay (Z-AAT Elastase Activity Assay); details: purified Z-AAT pre-incubated with compound 1 hour, then human neutrophil elastase and fluorescent substrate
From the text: B. Biochemical Assay (Z-AAT Elastase Activity Assay)
This assay measured the modulation of Compounds 1-227 on Z-AAT SERpIN activity using purified Z-AAT protein and purified human neutrophil elastase (hNE). Normally, when active monomeric Z-AAT encounters a protease such as trypsin or elastase, it forms a 1:1 covalent “suicide” complex in which both the AAT and protease are irreversibly inactivated. However, compounds binding to Z-AAT can lead to a decrease in SERpIN activity. In such cases, when a protease encounters compound-bound Z-AAT, the protease cleaves and inactivates Z-AAT without itself being inactivated.
Reagents • PBS buffer (media prep)+0.01% BRIJ35 detergent (Calbiochem catalog #203728) Opti-MEM media (Fisher 11058-021) • Human neutrophil elastase (hNE, Athens Research #16-14-051200) • 3.4 μM stock (0.1 mg/mL) prepared in 50 mM Na Acetate, pH 5.5, 150 mM NaCl, stored at −80° C. • Elastase substrate V (ES V, fluorescent peptide substrate MeOSuc-Ala-Ala-Pro-Val-AMC, Calbiochem catalog #324740) • 20 mM stock in DMSO, stored at −20° C. • Purified Z-AAT protein from human plasma; • 12.9 μM (0.67 mg/mL) Z-AAT Vertex Cambridge Sample 4942, from patient • #061-SSN, stored at −80 C
Plates • Corning 4511 (384 well black low volume)
Instruments • PerkinElmer® EnVision™
Pre-Incubation of Z-AAT with Compounds • 1. 7.5 μL of Z-AAT (20 nM) was incubated with compounds 1-227 in a GCA plate for 1 hour at room temperature
Addition of hNE • 1. 7.5 ul of HNE solution (3 nM in PBS+0.01% BRIJ35) added into GCA plate • 2. Incubate plate for 30 minutes to allow Z-AAT/HNE suicide complex formation.
Addition of Substrate and Read Plate on PE Envision • 1. 7.5 μL of substrate (300 μM solution of elastase substrate (ES V) in PBS+0.01% BRIJ35) dispensed per well into GCA plate • 2. Immediately read on Envision.

Chain of NL20 human bronchial epithelial cells expressing human Z-AAT (P01009 25-418 E366K limits assumed): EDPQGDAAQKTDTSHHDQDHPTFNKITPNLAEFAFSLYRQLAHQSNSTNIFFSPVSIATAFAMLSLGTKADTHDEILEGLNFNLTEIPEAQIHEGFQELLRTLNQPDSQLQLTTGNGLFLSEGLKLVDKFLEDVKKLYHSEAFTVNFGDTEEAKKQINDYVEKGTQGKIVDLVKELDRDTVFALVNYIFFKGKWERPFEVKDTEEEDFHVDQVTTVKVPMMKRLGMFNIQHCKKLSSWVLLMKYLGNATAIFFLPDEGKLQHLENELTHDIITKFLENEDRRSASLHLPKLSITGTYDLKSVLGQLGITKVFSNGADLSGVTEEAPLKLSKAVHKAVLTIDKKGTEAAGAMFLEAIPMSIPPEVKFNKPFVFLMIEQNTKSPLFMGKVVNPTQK
Chain of purified Z-AAT protein from human plasma (P01009 25-418 E366K limits assumed): as above

Compound | EC50 [1] | IC50 [2]
O=C(O)[C@H]1CCC[C@@H](c2c(C3CCOCC3)n(-c3ccc(F)c(F)c3)c3ccc(O)cc23)C1 (relative stereo) [Compound 136, cis-3-(1-(3,4-difluorophenyl)-5-hydroxy-2-(tetrahydro-2H-pyran-4-yl)-1H-indol-3-yl)cyclohexane-1-carboxylic acid] | 500 to 2000 nM | > 30000 nM
O=C(O)[C@H]1C[C@H](Cc2c(C3CCOCC3)n(-c3ccc(F)c(Cl)c3)c3ccc(O)cc23)C1 [Compound 34] | > 2000 nM | > 30000 nM
COCC(C)(C)c1c(-c2ccc(C(=O)O)cc2)c2cc(O)ccc2n1-c1ccc(F)cc1 [Compound 164, 4-(1-(4-fluorophenyl)-5-hydroxy-2-(1-methoxy-2-methylpropan-2-yl)-1H-indol-3-yl)benzoic acid] | < 500 nM | < 2000 nM
COCC(C)(C)c1c(C2CC(C(=O)O)C2)c2cc(O)ccc2n1-c1ccc(F)c(C)c1 (stereo not drawn) [Compound 72] | > 2000 nM | > 30000 nM
Cc1cc(-n2c(C(C)C)c(CCC(C)(C)C(=O)O)c3cc(O)ccc32)ccc1F [Compound 62] | 500 to 2000 nM | > 30000 nM
Cc1cc(-n2c(C(C)C)c([C@@H]3COCC3C(=O)O)c3cc(O)ccc32)ccc1F (mixture of isomers) [Compound 82] | > 2000 nM | > 30000 nM
Cc1cc(-n2c(C3CCOCC3)c(C3CCCC(C(=O)O)C3)c3cc(O)ccc32)ccc1F (stereo not drawn) [Compound 3] | 500 to 2000 nM | > 30000 nM
Cc1cc(-n2c(C3CC3)c(CC(=O)O)c3cc(O)ccc32)ccc1F [Compound 160] | > 2000 nM | > 30000 nM
Cc1cc(-n2c(C3CC3)c([C@H]3C[C@@H]3C(=O)O)c3cc(O)ccc32)ccc1F [Compound 132] | > 2000 nM | > 30000 nM
CS(N)(=O)=Cc1c(C#N)c2cc(O)ccc2n1-c1ccc(F)cc1 (stereo not drawn) [Compound 206, 1-(3-cyano-1-(4-fluorophenyl)-5-hydroxy-1H-indol-2-yl)-S-methylmethanesulfinamide] | > 2000 nM | > 30000 nM
O=C(O)[C@H]1C[C@H](c2c(C3CCOCC3)n(-c3ccc(F)c(F)c3)c3ccc(O)cc32)C1 [Compound 116] | > 2000 nM | > 30000 nM
Cc1cc(-n2c(C3CCOCC3)c(CCC(C)(C)C(=O)O)c3cc(O)ccc32)ccc1F [Compound 14] | 500 to 2000 nM | > 30000 nM
Cc1cc(-n2c(C(C)C)c([C@H]3C[C@@H]3C(=O)O)c3cc(O)ccc32)ccc1F [Compound 134] | 500 to 2000 nM | > 5000 nM
Cc1cc(-n2c(C3CCOCC3)c([C@H]3CCC[C@@H](CC(=O)O)C3)c3cc(O)ccc32)ccc1F (racemic) [Compound 105, cis-2-(3-(1-(4-fluoro-3-methylphenyl)-5-hydroxy-2-(tetrahydro-2H-pyran-4-yl)-1H-indol-3-yl)cyclohexyl)acetic acid] | 500 to 2000 nM | > 30000 nM
C[C@]1(C(=O)O)C[C@H](c2c(C3CCOCC3)n(-c3ccc(F)cc3)c3ccc(O)cc32)C1 [Compound 48] | > 2000 nM | > 30000 nM

The next lines start with the values.

EC50 [1] | IC50 [2] | Compound
500 to 2000 nM | > 30000 nM | Cc1cc(-n2c(C(C)C)c(C#N)c3cc(O)ccc32)ccc1F [Compound 187]
> 2000 nM | > 30000 nM | CCC(O)c1c(C#N)c2cc(O)ccc2n1-c1ccc(F)cc1 (racemic) [Compound 189, 1-(4-fluorophenyl)-5-hydroxy-2-(1-hydroxypropyl)indole-3-carbonitrile]
> 2000 nM | > 30000 nM | COC[C@]1(C(=O)O)C[C@H](c2c(C3CCOCC3)n(-c3ccc(F)c(C)c3)c3ccc(O)cc32)C1 [Compound 106, trans-3-(1-(4-fluoro-3-methylphenyl)-5-hydroxy-2-(tetrahydro-2H-pyran-4-yl)-1H-indol-3-yl)-1-(methoxymethyl)cyclobutane-1-carboxylic acid]
> 2000 nM | > 30000 nM | Cc1cc(-n2c(C(C)C)c([C@@H]3COC[C@@H]3C(=O)O)c3cc(O)ccc32)ccc1F (racemic) [Compound 83]
> 2000 nM | > 30000 nM | O=C(O)[C@H]1C[C@H](c2c(C3CCOCC3)n(-c3cc(F)cc(F)c3)c3ccc(O)cc32)C1 [Compound 112]
> 2000 nM | > 30000 nM | CC(C)c1c([C@H]2C[C@@](C)(C(=O)O)C2)c2cc(O)ccc2n1-c1ccc(F)c(Cl)c1 [Compound 76]
< 500 nM | > 30000 nM | Cc1cc(-n2c(C3CCOCC3)c([C@H]3CC4(C[C@H](C(=O)O)C4)C3)c3cc(O)ccc32)ccc1F (stereo partly drawn) [Compound 11]
> 2000 nM | > 30000 nM | Cc1cc(-n2c(C3CCS(=O)(=O)CC3)c([C@H]3C[C@@](C(=O)O)(C(F)(F)F)C3)c3cc(O)ccc32)ccc1F [Compound 43]
> 2000 nM | > 30000 nM | Cc1cc(-n2c(C)c(C#N)c3cc(O)cc(C)c32)ccc1F [Compound 208, 1-(4-fluoro-3-methylphenyl)-5-hydroxy-2,7-dimethyl-1H-indole-3-carbonitrile]
500 to 2000 nM | 2000 to 5000 nM | CC(C)c1c([C@H]2CC3(C[C@H](C(=O)O)C3)C2)c2cc(O)ccc2n1-c1ccc(F)c(F)c1 (stereo partly drawn) [Compound 58]
> 2000 nM | > 30000 nM | Cc1cc(-n2c(C(C)C)c(CC(C)(O)C(=O)O)c3cc(O)ccc32)ccc1F (stereo not drawn) [Compound 152, 3-[1-(4-fluoro-3-methyl-phenyl)-5-hydroxy-2-isopropyl-indol-3-yl]-2-hydroxy-2-methyl-propanoic acid]
500 to 2000 nM | > 30000 nM | Cc1cc(-n2c(C(C)C)c(C(C)CC(=O)O)c3cc(O)ccc32)ccc1F (stereo not drawn) [Compound 176]
